Tests used:
[1] = Inhibition of MERS-CoV 3CLpro by FRET-enzymatic assay; design: species or system Middle East respiratory syndrome-related coronavirus
[2] = AUClast in ICR mouse at 20 mg/kg, po; assay type: ADME, organism-based; details: in vivo
[3] = Tmax in ICR mouse at 20 mg/kg, po; assay type: ADME, organism-based; details: in vivo
[4] = Observed MRT (0 to infinity) in ICR mouse at 20 mg/kg, po; assay type: ADME, organism-based; details: in vivo
[5] = Inhibition of porcine delta coronavirus 3CLpro by FRET-enzymatic assay; design: species or system Porcine deltacoronavirus
[6] = target: Dipeptidyl peptidase 4 (Homo sapiens, UniProt P27487); test: Inhibition of human DPP-4 using Gly-Pro-AMC as substrate incubated for 10 mins by FRET-enzymatic assay
Chain of Dipeptidyl peptidase 4 (P27487 whole entry): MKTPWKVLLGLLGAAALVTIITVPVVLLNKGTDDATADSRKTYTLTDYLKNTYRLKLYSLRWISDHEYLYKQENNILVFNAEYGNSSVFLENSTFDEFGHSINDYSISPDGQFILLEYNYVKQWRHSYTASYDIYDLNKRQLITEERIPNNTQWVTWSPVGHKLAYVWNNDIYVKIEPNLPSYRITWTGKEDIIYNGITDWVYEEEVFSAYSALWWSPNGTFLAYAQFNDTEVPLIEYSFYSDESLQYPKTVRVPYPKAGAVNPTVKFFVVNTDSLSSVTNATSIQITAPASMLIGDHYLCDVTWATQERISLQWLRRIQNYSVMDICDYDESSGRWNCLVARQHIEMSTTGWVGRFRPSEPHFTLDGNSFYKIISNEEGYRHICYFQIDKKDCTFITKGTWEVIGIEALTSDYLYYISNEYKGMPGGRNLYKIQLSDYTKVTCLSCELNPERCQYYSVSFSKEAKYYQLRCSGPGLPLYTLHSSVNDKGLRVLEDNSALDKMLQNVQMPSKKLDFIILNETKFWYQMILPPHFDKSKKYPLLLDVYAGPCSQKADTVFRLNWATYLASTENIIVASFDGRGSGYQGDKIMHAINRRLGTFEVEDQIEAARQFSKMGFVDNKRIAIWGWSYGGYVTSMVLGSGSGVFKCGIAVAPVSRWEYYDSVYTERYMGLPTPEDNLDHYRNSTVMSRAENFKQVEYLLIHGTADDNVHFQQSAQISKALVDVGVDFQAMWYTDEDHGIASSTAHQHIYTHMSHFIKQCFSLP

[7] = target: T1, Replicase polyprotein 1ab (Severe acute respiratory syndrome coronavirus 2, UniProt P0DTD1)
[8] = AUC (0 to infinity) in ICR mouse at 20 mg/kg, po; assay type: ADME, organism-based; details: in vivo
[9] = target: T1, Replicase polyprotein 1ab; remark: listed apart in the source
[10] = Acute toxicity in mouse assessed as animal death at 500 mg/kg, po administered twice a day for 5 days; assay type: organism-based; details: in vivo, 120 h, time 5 day
[11] = Inhibition of mouse hepatitis virus 3CLpro by FRET-enzymatic assay; design: species or system Murine hepatitis virus
[12] = Cytotoxicity against African green monkey Vero E6 cells incubated for 24 hrs by CCK8 assay; assay type: toxicity, cell-based, Vero C1008; details: chlorocebus sabaeus
[13] = target: Trypsin (Homo sapiens, UniProt P07477+P07478+P35030); test: Inhibition of human trypsin using CBZ-Arg-Arg-AMC as substrate incubated for 10 mins by FRET-enzymatic assay; assay type: protein assay
[14] = target: Cathepsin D (Homo sapiens, UniProt P07339); test: Inhibition of human Cathepsin D using MCA-PLGL-Dap(Dnp)-AR-NH2 as substrate incubated for 10 mins by FRET-enzymatic assay
Chain of Cathepsin D (P07339 65-162 limits assumed): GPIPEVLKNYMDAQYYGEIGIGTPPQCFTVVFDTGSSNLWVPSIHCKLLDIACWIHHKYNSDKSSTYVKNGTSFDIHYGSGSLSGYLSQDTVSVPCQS
Chain of Cathepsin D (P07339 169-412 limits assumed): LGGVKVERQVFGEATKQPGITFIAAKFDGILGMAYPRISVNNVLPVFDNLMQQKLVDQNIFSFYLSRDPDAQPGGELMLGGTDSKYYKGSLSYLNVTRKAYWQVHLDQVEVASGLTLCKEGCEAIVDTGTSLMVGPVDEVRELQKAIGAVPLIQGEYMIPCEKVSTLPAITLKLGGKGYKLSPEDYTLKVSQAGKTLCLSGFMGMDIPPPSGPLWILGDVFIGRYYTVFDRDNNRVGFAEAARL

[15] = Inhibition of Bat coronavirus WIV-1 3CLpro by FRET-enzymatic assay
[16] = Acute toxicity in mouse assessed as body weight change at 500 mg/kg, po administered twice a day for 5 days; assay type: organism-based; details: in vivo, 120 h, time 5 day
[17] = target: Prothrombin (Homo sapiens, UniProt P00734); test: Inhibition of human thrombin using benzoyl-FVR-AMC as substrate incubated for 10 mins by FRET-enzymatic assay
[18] = target: 3C-like protease (Infectious bronchitis virus, UniProt Q3Y5H1); test: Inhibition of Infectious bronchitis virus 3CLpro by FRET-enzymatic assay
Chain of 3C-like protease (Q3Y5H1 whole entry): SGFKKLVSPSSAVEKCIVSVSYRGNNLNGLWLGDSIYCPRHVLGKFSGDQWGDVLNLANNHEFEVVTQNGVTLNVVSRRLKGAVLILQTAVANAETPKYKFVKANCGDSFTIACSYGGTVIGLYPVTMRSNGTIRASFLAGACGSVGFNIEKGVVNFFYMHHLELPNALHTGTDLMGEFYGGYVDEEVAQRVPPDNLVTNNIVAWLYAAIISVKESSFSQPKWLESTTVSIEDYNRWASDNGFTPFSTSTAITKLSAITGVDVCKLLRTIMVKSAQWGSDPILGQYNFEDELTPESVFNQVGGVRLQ

[19] = system: Proteasome; assay type: subcellular, Homo sapiens
[20] = Inhibition of Bat coronavirus HKU9 3CLpro by FRET-enzymatic assay; design: species or system Rousettus bat coronavirus HKU9
[21] = target: Replicase polyprotein 1ab (Severe acute respiratory syndrome coronavirus 2) (UniProt P0DTD1); details: dose 31.25-1000 nM, time 100.0 sec
[22] = target: T2, Calpain-1 catalytic subunit (Homo sapiens, UniProt P07384); test: Inhibition of human Calpain 1 using N-Suc-Leu-Leu-Val-Tyr-7-AMC as substrate incubated for 10 mins by FRET-enzymatic assay
T2 sequence (P07384 whole entry): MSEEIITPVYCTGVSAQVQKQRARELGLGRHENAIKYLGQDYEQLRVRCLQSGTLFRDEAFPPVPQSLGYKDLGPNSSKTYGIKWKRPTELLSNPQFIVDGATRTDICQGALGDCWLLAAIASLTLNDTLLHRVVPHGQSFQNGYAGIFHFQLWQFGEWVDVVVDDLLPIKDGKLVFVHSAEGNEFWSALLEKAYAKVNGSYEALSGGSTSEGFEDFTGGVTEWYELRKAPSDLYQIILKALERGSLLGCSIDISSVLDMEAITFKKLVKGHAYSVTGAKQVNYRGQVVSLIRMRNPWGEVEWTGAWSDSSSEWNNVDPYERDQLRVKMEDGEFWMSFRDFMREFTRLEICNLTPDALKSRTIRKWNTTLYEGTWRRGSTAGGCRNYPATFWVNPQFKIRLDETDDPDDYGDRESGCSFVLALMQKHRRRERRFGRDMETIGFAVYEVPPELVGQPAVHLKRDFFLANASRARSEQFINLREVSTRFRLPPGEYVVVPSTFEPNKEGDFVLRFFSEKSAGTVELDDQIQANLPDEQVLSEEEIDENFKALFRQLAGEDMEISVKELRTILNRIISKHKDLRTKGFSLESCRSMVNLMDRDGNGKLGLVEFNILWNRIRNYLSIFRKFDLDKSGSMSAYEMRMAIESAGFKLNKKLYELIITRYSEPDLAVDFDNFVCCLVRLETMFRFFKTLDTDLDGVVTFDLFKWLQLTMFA

[23] = target: Replicase polyprotein 1ab (Human coronavirus 229E, UniProt P0C6X1); test: Inhibition of HCov-229E 3CLpro by FRET-enzymatic assay
Chain of Replicase polyprotein 1ab (Human coronavirus 229E, UniProt P0C6X1) (P0C6X1 2966-3267 limits assumed): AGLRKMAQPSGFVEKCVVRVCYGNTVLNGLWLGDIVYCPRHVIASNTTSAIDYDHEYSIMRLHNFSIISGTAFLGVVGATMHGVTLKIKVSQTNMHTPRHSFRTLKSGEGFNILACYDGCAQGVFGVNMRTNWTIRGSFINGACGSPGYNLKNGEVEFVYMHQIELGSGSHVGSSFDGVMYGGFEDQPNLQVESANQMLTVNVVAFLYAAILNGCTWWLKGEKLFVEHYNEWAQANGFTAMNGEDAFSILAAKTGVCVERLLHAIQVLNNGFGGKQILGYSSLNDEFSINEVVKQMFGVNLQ

[24] = target: T3, Caspase-3 (Homo sapiens, UniProt P42574); test: Inhibition of human Caspase-3 activity using Ac-DEVD-pNA as substrate incubated for 5 mins by FRET-enzymatic assay
T3 sequence (P42574 whole entry): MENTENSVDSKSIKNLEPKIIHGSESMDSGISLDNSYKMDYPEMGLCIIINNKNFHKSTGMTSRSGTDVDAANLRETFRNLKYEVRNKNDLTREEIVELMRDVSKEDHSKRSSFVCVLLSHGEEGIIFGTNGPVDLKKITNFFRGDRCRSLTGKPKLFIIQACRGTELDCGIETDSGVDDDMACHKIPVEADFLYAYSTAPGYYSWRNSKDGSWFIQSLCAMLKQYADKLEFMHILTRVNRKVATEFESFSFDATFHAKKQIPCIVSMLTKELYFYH

[25] = Cmax in ICR mouse at 20 mg/kg, po; assay type: ADME, organism-based; details: in vivo
[26] = target: Cathepsin B (Homo sapiens, UniProt P07858); test: Inhibition of human Cathepsin B using CBZ-Arg-Arg-AMC as substrate incubated for 10 mins by FRET-enzymatic assay
[27] = target: Procathepsin L (Homo sapiens, UniProt P07711); test: Inhibition of human Cathepsin L using Z-Phe-Arg-AMC as substrate incubated for 10 mins by FRET-enzymatic assay
Chain of Procathepsin L (P07711 whole entry): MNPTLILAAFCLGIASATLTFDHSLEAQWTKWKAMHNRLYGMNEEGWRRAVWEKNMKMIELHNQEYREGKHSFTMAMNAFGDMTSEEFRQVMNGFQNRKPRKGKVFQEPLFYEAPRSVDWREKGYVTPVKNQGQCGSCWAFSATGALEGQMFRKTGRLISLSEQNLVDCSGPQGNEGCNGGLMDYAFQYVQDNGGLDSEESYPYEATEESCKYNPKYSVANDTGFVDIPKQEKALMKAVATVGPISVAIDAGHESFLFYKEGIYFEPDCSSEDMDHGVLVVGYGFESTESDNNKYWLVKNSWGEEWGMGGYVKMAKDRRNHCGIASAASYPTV

[28] = Half-life in ICR mouse at 20 mg/kg, po; assay type: ADME, organism-based; details: in vivo
[29] = target: T4, Cathepsin K (Homo sapiens, UniProt P43235); test: Inhibition of human Cathepsin K using Z-Phe-Arg-AMC as substrate incubated for 10 mins by FRET-enzymatic assay
T4 sequence (P43235 whole entry): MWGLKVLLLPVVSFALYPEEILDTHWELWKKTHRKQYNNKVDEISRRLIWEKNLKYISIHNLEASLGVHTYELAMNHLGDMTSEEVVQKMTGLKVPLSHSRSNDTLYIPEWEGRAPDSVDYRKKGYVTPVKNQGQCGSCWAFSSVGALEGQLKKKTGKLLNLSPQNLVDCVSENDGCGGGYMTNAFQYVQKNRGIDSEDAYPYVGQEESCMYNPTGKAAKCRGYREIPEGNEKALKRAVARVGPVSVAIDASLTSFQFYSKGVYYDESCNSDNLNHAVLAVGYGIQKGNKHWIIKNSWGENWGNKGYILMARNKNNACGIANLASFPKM

[30] = target: Replicase polyprotein 1ab (Severe acute respiratory syndrome coronavirus 2) (UniProt P0DTD1); details: dose 31.25-1000 nM, time 100.0 sec; remark: listed apart in the source
[31] = Acute toxicity in mouse at 500 mg/kg, po administered twice a day for 5 days; assay type: organism-based; details: in vivo, 120 h, time 5 day
[32] = Inhibition of HCov-OC43 3CLpro by FRET-enzymatic assay; design: species or system Human coronavirus OC43

Compound: CN1CCN(C(=O)c2cc(Br)cc([N+](=O)[O-])c2N[C@@H]2CCCC[C@@H]2NC(=O)c2cc(=O)[nH]c3c(F)cccc23)CC1
- IC50 [1]: 1.68 µM
- AUC(0-t) [2]: 70.6 ng·h/mL
- Tmax [3]: 3 min
- MRT inf [4]: 1.44 h
- IC50 [5]: > 10 µM
- IC50 [6]: > 100 µM
- Kd [7]: 0.0184 µM
- AUC(0-inf) [8]: 77.7 ng·h/mL
- IC50 [9]: 0.0211 µM
- Activity [10]: Non-Toxic
- IC50 [11]: > 10 µM
- CC50 at 24 h [12]: > 200 µM
- IC50 [13]: > 100 µM
- IC50 [14]: > 100 µM
- IC50 [15]: 0.086 µM
- Activity [16]: Non-Toxic
- IC50 [17]: > 100 µM
- IC50 [18]: > 10 µM
- IC50 [19]: > 100 µM
- IC50 [20]: 0.402 µM
- K [21]: 0.007 s⁻¹
- IC50 [22]: > 100 µM
- IC50 [23]: 2.56 µM
- IC50 [24]: > 100 µM
- Cmax [25]: 76.3 ng/mL
- IC50 [26]: > 100 µM
- IC50 [27]: > 100 µM
- half-life [28]: 1.21 h
- IC50 [29]: > 100 µM
- K [30]: 3.8 10^5/M/s
- Activity [31]: Non-Toxic
- IC50 [32]: 0.94 µM
